The values that follow come from patent US8367830B2, “Methods for the identification of phosphatidylinositol kinase interacting molecules and for the purification of phosphatidylinositol kinase proteins” (Cellzome AG, priority 2009, dated 2013).

The structures appear in SMILES notation.

Holding throughout (assay): Kinobeads competition binding, immobilized CZC31207, HeLa/placenta lysate mix
Details in all cases: 10 μM free compound; mixed HeLa and placenta cell lysates

For one test, the target named is T1, AurA (Homo sapiens, UniProt O14965).
T1 construct: endogenous in cells; host or cells: mixed lysate of HeLa cells and placenta
Here is the method: (§1) To the first aliquot of cell lysate 10 μM of the free compound (CZC31207) was added and allowed to bind to proteins in the lysate. Then the affinity matrix with the immobilized compound (Example 1) was added to capture proteins that were not interacting with the previously added free compound. Beads were separated from the lysate and bead bound proteins were eluted in SDS sample buffer and subsequently separated by SDS-Polyacrylamide gel electrophoresis (FIG. 4). Suitable gel bands were cut out and subjected to in-gel proteolytic digestion with trypsin. The second lysate aliquot was processed identically, however no free compound was added (DMSO solvent control). Peptides originating from samples 1 and 2 were labeled with iTRAQ reagents (iTRAQ 115 and iTRAQ 117) and the combined samples were analyzed with a nano-flow liquid chromatography system coupled online to a tandem mass spectrometer (LC-MS/MS) experiment followed by iTRAQ reporter ion quantification in the MS/MS spectra (Ross et al., 2004. Mol. Cell. Proteomics 3(12):1154-1169). Further experimental protocols can be found in WO2006/134056 and a previous publication (Bantscheff et al., 2007. Nature Biotechnology 25, 1035-1044).
(§2) Cells were homogenized in a Potter S homogenizer in lysis buffer: 50 mM Tris-HCl, 0.8% NP40, 5% glycerol, 150 mM NaCl, 1.5 mM MgCl2, 25 mM NaF, 1 mM sodium vanadate, 1 mM DTT, pH 7.5. One complete EDTA-free tablet (protease inhibitor cocktail, Roche Diagnostics, 1 873 580) per 25 ml buffer was added. The material was dounced 20 times using a mechanized POTTER S, transferred to 50 ml falcon tubes, incubated for 30 minutes rotating at 4° C. and spun down for 10 minutes at 20,000×g at 4° C. (10,000 rpm in Sorvall SLA600, precooled). The supernatant was transferred to an ultracentrifuge (UZ)-polycarbonate tube (Beckmann, 355654) and spun for 1 hour at 145.000×g at 4° C. (40.000 rpm in Ti50.2, precooled). The supernatant was transferred again to a fresh 50 ml falcon tube, the protein concentration was determined by a Bradford assay (BioRad) and samples containing 50 mg of protein per aliquot were prepared. The samples were immediately used for experiments or frozen in liquid nitrogen and stored frozen at −80° C.
(§3) Sepharose-beads with the immobilized compound (100 μl beads per pull-down experiment) were equilibrated in lysis buffer and incubated with a cell lysate sample containing 50 mg of protein on an end-over-end shaker (Roto Shake Genie, Scientific Industries Inc.) for 2 hours at 4° C. Beads were collected, transferred to Mobicol-columns (MoBiTech 10055) and washed with 10 ml lysis buffer containing 0.4% NP40 detergent, followed by 5 ml lysis buffer containing 0.2% detergent. To elute bound proteins, 60 μl 2×SDS sample buffer was added to the column. The column was incubated for 30 minutes at 50° C. and the eluate was transferred to a siliconized microfuge tube by centrifugation. Proteins were then alkylated with 108 mM iodoacetamid. Proteins were then separated by SDS-Polyacrylamide electrophoresis (SDS-PAGE).
(§4) Gel-separated proteins were digested in-gel essentially following a previously described procedure (Shevchenko et al., 1996, Anal. Chem. 68:850-858). Briefly, gel-separated proteins were excised from the gel using a clean scalpel, destained twice using 100 μl 5 mM triethylammonium bicarbonate buffer (TEAB; Sigma T7408) and 40% ethanol in water and dehydrated with absolute ethanol. Proteins were subsequently digested in-gel with porcine trypsin (Promega) at a protease concentration of 10 ng/μl in 5 mM TEAB. Digestion was allowed to proceed for 4 hours at 37° C. and the reaction was subsequently stopped using 5 μl 5% formic acid.
(§5) Gel plugs were extracted twice with 20 μl 1% formic acid and three times with increasing concentrations of acetonitrile. Extracts were subsequently pooled with acidified digest supernatants and dried in a vacuum centrifuge. […]

The next test concerns the target T2, Erk2 (Homo sapiens, UniProt P28482).
T2 construct: endogenous in cells; host or cells: mix of HeLa cell lysate and placenta lysate
The protocol:
as §1, §2, §3, §4, §5

Another test concerns the target T3, JNK2 (Homo sapiens, UniProt P45984).
T3 construct: endogenous in cells; host or cells: mixed lysate of HeLa cells and placenta
The protocol:
as §1, §2, §3, §4, §5

The next test deals with T4, MAP3K6 (Homo sapiens, UniProt O95382).
T4 construct: endogenous in cells; host or cells: mixed lysate of HeLa cells and placenta
Here is the method: as §1, §2, §3, §4, §5

For the next test, the target named is T5, MLKL (Homo sapiens, UniProt Q8NB16).
T5 construct: endogenous in cells; host or cells: mix of HeLa cell lysate and placenta lysate
The protocol: as §1, §2, §3, §4, §5

The target in another test is T6, PIK3Ca (Homo sapiens, UniProt P42336).
T6 construct: endogenous in cells; host or cells: mix of HeLa cell lysate and placenta lysate
Here is the method:
as §1, §2, §3, §4, §5

For a further test, the target named is T7, TNK1 (Homo sapiens, UniProt Q13470).
T7 construct: endogenous in cells; host or cells: mix of HeLa cell lysate and placenta lysate
Here is the method: as §1, §2, §3, §4, §5

A further test deals with CaMK2g (Homo sapiens, UniProt Q13555). Further details: endogenous in cells. The protocol:
as §1, §2
(§6) Sepharose-beads with the immobilized compound (100 μl beads per pull-down experiment) were equilibrated in lysis buffer and incubated with a cell lysate sample containing 50 mg of protein on an end-over-end shaker (Roto Shake Genie, Scientific Industries Inc.) for 2 hours at 4° C. Beads were collected, transferred to Mobicol-columns (MoBiTech 10055) and washed with 10 ml lysis buffer containing 0.4% NP40 detergent, followed by 5 ml lysis buffer containing 0.2% detergent. To elute bound proteins, 60 μl 2×SDS sample buffer was added to the column. […]

The target of a further test is DNAPK (Homo sapiens, UniProt P78527). Set-up: endogenous in cells; host or cells: mixed lysate of HeLa cells and placenta. Here is the method:
as §1
as §2, with “(40.000 rpm in Ti50.2, precooled).” left out, “The samples were immediately used for experiments or frozen in liquid nitrogen and stored frozen at −80° C.” left out

For the next test, the target named is FRAP (Homo sapiens, UniProt P42345). Further details: endogenous in cells; host or cells: mixed lysate of HeLa cells and placenta. Here is the method: as §1
as §2, with “(40.000 rpm in Ti50.2, precooled).” left out, “The samples were immediately used for experiments or frozen in liquid nitrogen and stored frozen at −80° C.” left out

For the next test, the target named is PIK3Cd (Homo sapiens, UniProt O00329). Set-up: endogenous in cells; host or cells: mixed lysate of HeLa cells and placenta. The protocol: as §1
as §2, with “(40.000 rpm in Ti50.2, precooled).” left out, “The samples were immediately used for experiments or frozen in liquid nitrogen and stored frozen at −80° C.” left out

The target in the next test is NEK2 (Homo sapiens, UniProt P51955). Set-up: endogenous in cells; host or cells: mix of HeLa cell lysate and placenta lysate. The protocol: as §1, §2, §6
NEK2, sequence (P51955 whole entry): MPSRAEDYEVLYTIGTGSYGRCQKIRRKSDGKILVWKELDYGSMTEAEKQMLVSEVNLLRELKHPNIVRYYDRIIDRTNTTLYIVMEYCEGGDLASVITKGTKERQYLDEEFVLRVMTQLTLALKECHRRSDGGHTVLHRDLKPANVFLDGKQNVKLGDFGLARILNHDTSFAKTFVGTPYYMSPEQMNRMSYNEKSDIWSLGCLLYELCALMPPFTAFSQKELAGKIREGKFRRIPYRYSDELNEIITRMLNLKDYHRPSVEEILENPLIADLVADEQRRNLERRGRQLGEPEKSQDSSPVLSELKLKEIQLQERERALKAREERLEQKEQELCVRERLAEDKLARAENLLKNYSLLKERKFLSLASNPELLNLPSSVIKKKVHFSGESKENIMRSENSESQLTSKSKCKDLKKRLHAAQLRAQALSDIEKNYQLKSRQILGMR
A further test deals with PIK3Cb (Homo sapiens, UniProt P42338). Set-up: endogenous in cells; host or cells: mix of HeLa cell lysate and placenta lysate. The protocol:
as §1, §2, §6

For a further test, the target named is PIK3Cg (Homo sapiens, UniProt P48736). Further details: endogenous in cells; host or cells: mix of HeLa cell lysate and placenta lysate. The protocol: as §1, §2, §6
The next test concerns the target PIP5K2C (Homo sapiens, UniProt Q8TBX8). Set-up: endogenous in cells; host or cells: mix of HeLa cell lysate and placenta lysate. The protocol: as §1, §2, §6

DNAPK, sequence (P78527 whole entry): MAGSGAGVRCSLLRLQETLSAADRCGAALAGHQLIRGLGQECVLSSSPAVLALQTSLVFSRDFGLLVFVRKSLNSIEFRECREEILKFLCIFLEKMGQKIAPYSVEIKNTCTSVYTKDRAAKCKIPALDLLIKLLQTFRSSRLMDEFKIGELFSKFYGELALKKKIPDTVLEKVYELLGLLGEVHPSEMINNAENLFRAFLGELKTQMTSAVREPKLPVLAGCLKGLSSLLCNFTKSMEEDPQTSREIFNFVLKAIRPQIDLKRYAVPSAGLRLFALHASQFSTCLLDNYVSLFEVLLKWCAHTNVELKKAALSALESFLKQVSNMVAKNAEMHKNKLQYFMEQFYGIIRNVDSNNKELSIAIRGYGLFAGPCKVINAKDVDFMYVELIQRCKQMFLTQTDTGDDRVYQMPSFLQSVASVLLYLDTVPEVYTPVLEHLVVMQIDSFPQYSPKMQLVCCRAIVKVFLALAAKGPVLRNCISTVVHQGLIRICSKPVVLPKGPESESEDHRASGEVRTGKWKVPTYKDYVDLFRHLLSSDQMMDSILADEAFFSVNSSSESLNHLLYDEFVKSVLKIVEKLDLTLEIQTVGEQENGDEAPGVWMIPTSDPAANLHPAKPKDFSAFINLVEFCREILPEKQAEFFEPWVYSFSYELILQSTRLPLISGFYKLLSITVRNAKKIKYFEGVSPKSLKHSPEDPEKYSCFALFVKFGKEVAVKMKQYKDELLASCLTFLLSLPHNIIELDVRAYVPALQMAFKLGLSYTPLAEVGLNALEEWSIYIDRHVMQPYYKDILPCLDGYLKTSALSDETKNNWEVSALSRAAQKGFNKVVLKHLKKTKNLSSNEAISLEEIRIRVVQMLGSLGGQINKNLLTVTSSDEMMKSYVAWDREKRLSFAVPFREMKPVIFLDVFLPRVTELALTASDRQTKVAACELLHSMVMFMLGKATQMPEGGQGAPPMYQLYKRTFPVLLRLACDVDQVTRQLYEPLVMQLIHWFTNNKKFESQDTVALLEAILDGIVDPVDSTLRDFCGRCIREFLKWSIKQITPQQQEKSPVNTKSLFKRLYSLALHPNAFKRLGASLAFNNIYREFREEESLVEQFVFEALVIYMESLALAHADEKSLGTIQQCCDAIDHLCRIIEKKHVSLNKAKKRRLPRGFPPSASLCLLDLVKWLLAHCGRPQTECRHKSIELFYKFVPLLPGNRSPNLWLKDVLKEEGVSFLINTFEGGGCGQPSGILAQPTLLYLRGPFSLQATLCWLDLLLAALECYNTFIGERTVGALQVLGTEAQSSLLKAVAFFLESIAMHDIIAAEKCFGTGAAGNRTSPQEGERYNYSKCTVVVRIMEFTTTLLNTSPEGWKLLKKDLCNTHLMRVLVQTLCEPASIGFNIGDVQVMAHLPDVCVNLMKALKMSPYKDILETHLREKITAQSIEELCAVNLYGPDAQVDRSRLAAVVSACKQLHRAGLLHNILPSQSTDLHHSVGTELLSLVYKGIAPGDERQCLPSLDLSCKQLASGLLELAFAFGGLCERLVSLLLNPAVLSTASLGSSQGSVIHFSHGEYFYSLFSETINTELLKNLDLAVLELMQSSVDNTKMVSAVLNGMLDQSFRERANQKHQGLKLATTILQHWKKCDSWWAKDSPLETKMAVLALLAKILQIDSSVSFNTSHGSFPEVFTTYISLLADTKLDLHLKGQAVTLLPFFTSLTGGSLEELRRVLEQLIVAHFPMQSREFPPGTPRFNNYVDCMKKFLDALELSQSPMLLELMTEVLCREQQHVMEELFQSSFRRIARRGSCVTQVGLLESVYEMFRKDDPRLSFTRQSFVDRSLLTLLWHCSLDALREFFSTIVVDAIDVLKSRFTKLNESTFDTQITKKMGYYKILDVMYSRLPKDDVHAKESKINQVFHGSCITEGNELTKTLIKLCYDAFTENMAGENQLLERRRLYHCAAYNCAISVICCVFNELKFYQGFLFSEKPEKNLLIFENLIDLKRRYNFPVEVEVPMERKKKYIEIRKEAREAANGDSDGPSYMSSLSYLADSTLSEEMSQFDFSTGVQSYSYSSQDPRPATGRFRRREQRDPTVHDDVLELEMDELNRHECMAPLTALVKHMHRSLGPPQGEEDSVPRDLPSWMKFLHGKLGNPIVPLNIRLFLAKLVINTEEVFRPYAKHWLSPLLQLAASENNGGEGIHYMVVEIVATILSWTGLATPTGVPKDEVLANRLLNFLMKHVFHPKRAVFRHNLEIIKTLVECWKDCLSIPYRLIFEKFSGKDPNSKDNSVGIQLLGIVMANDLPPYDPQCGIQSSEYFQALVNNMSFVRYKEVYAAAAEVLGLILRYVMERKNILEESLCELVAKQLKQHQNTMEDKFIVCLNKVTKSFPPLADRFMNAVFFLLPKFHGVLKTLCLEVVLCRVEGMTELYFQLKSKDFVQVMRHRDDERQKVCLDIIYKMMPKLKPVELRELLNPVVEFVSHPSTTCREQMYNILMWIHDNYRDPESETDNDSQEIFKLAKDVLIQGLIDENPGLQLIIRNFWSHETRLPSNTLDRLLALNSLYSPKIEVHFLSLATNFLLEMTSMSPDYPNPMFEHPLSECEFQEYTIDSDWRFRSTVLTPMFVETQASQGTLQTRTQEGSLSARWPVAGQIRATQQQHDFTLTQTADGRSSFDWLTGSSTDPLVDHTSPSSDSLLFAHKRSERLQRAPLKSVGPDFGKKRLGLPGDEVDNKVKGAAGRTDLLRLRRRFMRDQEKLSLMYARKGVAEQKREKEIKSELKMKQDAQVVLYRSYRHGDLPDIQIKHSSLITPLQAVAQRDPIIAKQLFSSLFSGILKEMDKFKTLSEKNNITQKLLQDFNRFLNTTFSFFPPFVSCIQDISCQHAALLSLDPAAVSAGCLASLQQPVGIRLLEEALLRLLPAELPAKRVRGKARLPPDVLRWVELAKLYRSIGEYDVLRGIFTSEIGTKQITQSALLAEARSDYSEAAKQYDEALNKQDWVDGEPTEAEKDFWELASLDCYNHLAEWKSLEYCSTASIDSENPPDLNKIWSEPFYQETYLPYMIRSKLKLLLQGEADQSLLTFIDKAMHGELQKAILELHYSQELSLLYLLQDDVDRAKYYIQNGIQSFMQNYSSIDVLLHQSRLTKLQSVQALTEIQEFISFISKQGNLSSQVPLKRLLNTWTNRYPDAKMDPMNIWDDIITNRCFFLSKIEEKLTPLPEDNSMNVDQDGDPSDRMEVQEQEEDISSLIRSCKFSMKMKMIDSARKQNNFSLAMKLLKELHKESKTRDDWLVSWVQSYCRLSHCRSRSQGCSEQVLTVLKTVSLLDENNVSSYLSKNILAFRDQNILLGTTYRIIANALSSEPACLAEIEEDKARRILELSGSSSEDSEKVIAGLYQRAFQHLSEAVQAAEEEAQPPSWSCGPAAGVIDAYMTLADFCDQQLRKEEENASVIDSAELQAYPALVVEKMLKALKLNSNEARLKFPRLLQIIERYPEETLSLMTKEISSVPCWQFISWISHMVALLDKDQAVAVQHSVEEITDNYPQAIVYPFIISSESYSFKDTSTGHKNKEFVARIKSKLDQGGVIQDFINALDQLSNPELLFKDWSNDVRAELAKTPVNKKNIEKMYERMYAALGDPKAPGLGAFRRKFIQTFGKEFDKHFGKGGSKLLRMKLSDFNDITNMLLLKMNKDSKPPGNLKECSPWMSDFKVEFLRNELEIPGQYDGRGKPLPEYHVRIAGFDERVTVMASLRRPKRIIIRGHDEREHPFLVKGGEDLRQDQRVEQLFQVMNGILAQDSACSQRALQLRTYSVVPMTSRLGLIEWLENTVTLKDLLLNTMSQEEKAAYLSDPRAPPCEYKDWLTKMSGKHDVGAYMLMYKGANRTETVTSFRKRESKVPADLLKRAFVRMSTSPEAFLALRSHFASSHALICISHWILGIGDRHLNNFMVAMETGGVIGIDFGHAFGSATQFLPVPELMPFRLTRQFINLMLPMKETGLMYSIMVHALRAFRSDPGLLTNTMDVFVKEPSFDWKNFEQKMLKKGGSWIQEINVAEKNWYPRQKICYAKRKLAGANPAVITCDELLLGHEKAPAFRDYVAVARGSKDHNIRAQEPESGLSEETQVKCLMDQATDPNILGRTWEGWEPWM
T2 sequence (P28482 whole entry): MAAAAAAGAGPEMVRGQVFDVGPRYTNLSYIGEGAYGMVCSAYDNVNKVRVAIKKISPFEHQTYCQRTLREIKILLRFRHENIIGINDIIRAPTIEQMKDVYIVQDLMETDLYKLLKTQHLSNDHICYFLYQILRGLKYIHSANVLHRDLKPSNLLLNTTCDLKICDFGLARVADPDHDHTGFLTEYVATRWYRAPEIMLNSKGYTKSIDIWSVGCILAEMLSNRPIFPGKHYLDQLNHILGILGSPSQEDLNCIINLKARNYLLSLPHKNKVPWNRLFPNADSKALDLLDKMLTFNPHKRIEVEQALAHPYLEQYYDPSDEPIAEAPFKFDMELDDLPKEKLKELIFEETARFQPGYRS

For `CC(C)NS(=O)(=O)c1cncc(-c2ccc3nc(NC(=O)NCCN)nn3c2)c1` [CZC31207, 5-(2-(3-(2-aminoethyl)ureido)-[1,2,4]triazolo[1,5-a]pyridin-6-yl)-N-isopropylpyridine-3-sulfonamide], at AurA, the “Competition % AurA” value is 12.8%. For the same compound, at Erk2, the “Competition % Erk2” value is −2.9%. Further, at JNK2, the “Competition % JNK2” value was determined as 24.6%. Moreover, the “Competition % MAP3K6” value at MAP3K6 is 10.3%. The “Competition % MLKL” value at MLKL turned out to be 34.2%. The “Competition % PIK3Ca” value at PIK3Ca is reported as 68.6%. Moreover, the “Competition % TNK1” value at TNK1 is recorded as −1.9%. In addition, on CaMK2g, the “Competition % CaMK2g” value came to 15.2%. At DNAPK, the “Competition % DNAPK” value came to 35.3%. Also, the “Competition % FRAP” value on FRAP worked out at 25.9%. The “Competition % PIK3Cd” value at PIK3Cd is recorded as 83.6%. For the same compound, at NEK2, the “Competition % NEK2” value stood at 40.4%. Also, at PIK3Cb, the “Competition % PIK3Cb” value is 85.6%. The “Competition % PIK3Cg” value at PIK3Cg is on record as 80%. Moreover, the “Competition % PIP5K2C” value on PIP5K2C was 78.3%.
